Test results from ChEMBL document CHEMBL3885881, “DrugMatrix”.

Organism: Rattus norvegicus
Assay: DrugMatrix - Regimen: Daily Repeat
Format: toxicity, organism-based, Sprague-Dawley
Design: regimen Daily Repeat, gender Male, age 6-8 weeks
Conditions: in vivo, sc, route subcutaneous, […]; for ABSOLUTE BASOPHIL / BASOPHIL / ABSOLUTE EOSINOPHIL / ABSOLUTE LYMPHOCYTE / ABSOLUTE MONOCYTE / ABSOLUTE SEGMENTED NEUTROPHIL / EOSINOPHIL / ERYTHROCYTE COUNT / HEMATOCRIT / HEMOGLOBIN / LEUKOCYTE COUNT / LYMPHOCYTE / MEAN CORPUSCULAR HEMOGLOBIN / MEAN CORPUSCULAR HEMOGLOBIN CONCENTRATION / MEAN CORPUSCULAR VOLUME / MONOCYTE / NEUTROPHIL / NUCLEATED RED BLOOD CELLS / PLATELET COUNT: tissue Blood; for CREATININE / ALANINE AMINOTRANSFERASE / ALBUMIN / ALKALINE PHOSPHATASE / ASPARTATE AMINOTRANSFERASE / BLOOD UREA NITROGEN / CARBON DIOXIDE / CHLORIDE / CHOLESTEROL / CREATINE PHOSPHOKINASE / GLUCOSE / LACTATE DEHYDROGENASE / LIPASE / PHOSPHORUS / POTASSIUM / SODIUM / TOTAL BILIRUBIN / TOTAL PROTEIN / URIC ACID: tissue Plasma
[1] = 0 mg/kg, 72 h, dose level Control, time 3 day
[2] = 0 mg/kg, 120 h, dose level Control, time 5 day
[3] = 0.1 mg/kg, 72 h, dose level Low, time 3 day
[4] = 0.1 mg/kg, 120 h, dose level Low, time 5 day
[5] = 2 mg/kg, 72 h, dose level M2, time 3 day
[6] = 2 mg/kg, 120 h, dose level M2, time 5 day

C[C@]12CC[C@@H]3c4ccc(OC(=O)c5ccccc5)cc4CC[C@H]3[C@@H]1CC[C@@H]2O [ESTRADIOL BENZOATE]
ABSOLUTE BASOPHIL [1]: 0 CELLS/uL | BASOPHIL [1]: 0% | ABSOLUTE BASOPHIL [2]: 0 CELLS/uL | BASOPHIL [2]: 0% | CREATININE [2]: 0.17 mg/dL | ABSOLUTE BASOPHIL [3]: 0 CELLS/uL | ABSOLUTE EOSINOPHIL [3]: 27.33 CELLS/uL | ABSOLUTE LYMPHOCYTE [3]: 9086.67 CELLS/uL | ABSOLUTE MONOCYTE [3]: 78.67 CELLS/uL | ABSOLUTE SEGMENTED NEUTROPHIL [3]: 1407.33 CELLS/uL | BASOPHIL [3]: 0% | EOSINOPHIL [3]: 0.33% | ERYTHROCYTE COUNT [3]: 6.05 x10E6/uL | HEMATOCRIT [3]: 38.9% | HEMOGLOBIN [3]: 13.37 G/DL | LEUKOCYTE COUNT [3]: 10.6 x10E3/uL | LYMPHOCYTE [3]: 85.67% | MEAN CORPUSCULAR HEMOGLOBIN [3]: 22.27 pg | MEAN CORPUSCULAR HEMOGLOBIN CONCENTRATION [3]: 34.73 G/DL | MEAN CORPUSCULAR VOLUME [3]: 64.23 fL | MONOCYTE [3]: 0.67% | NEUTROPHIL [3]: 13.33% | NUCLEATED RED BLOOD CELLS [3]: 0 /100WBC | PLATELET COUNT [3]: 1490.33 x10E3/uL | ALANINE AMINOTRANSFERASE [3]: 35.67 u/L | ALBUMIN [3]: 4.43 G/DL | ALKALINE PHOSPHATASE [3]: 250.67 u/L | ASPARTATE AMINOTRANSFERASE [3]: 76 u/L | BLOOD UREA NITROGEN [3]: 10 mg/dL | CARBON DIOXIDE [3]: 23.67 mmol/L | CHLORIDE [3]: 100.33 MEQ/L | CHOLESTEROL [3]: 76.67 mg/dL | CREATINE PHOSPHOKINASE [3]: 460 u/L | CREATININE [3]: 0.17 mg/dL | GLUCOSE [3]: 191.67 mg/dL | LACTATE DEHYDROGENASE [3]: 269.67 u/L | LIPASE [3]: 9 u/L | PHOSPHORUS [3]: 12.77 mg/dL | POTASSIUM [3]: 6.18 MEQ/L | SODIUM [3]: 140.73 MEQ/L | TOTAL BILIRUBIN [3]: 0.1 mg/dL | TOTAL PROTEIN [3]: 5.77 G/DL | URIC ACID [3]: 3.8 mg/dL | ABSOLUTE BASOPHIL [4]: 0 CELLS/uL | ABSOLUTE EOSINOPHIL [4]: 79 CELLS/uL | ABSOLUTE LYMPHOCYTE [4]: 6274.33 CELLS/uL | ABSOLUTE MONOCYTE [4]: 295 CELLS/uL | ABSOLUTE SEGMENTED NEUTROPHIL [4]: 551.67 CELLS/uL | BASOPHIL [4]: 0% | EOSINOPHIL [4]: 1% | ERYTHROCYTE COUNT [4]: 5.91 x10E6/uL | HEMATOCRIT [4]: 35.77% | HEMOGLOBIN [4]: 13.47 G/DL | LEUKOCYTE COUNT [4]: 7.2 x10E3/uL | LYMPHOCYTE [4]: 86.67% | MEAN CORPUSCULAR HEMOGLOBIN [4]: 22.8 pg | MEAN CORPUSCULAR HEMOGLOBIN CONCENTRATION [4]: 37.67 G/DL | MEAN CORPUSCULAR VOLUME [4]: 60.53 fL | MONOCYTE [4]: 4% | NEUTROPHIL [4]: 8.33% | NUCLEATED RED BLOOD CELLS [4]: 0 /100WBC | PLATELET COUNT [4]: 1231.67 x10E3/uL | ALANINE AMINOTRANSFERASE [4]: 39.67 u/L | ALBUMIN [4]: 5.37 G/DL | ALKALINE PHOSPHATASE [4]: 187.33 u/L | ASPARTATE AMINOTRANSFERASE [4]: 63 u/L | BLOOD UREA NITROGEN [4]: 13.67 mg/dL | CARBON DIOXIDE [4]: 29 mmol/L | CHLORIDE [4]: 98.33 MEQ/L | CHOLESTEROL [4]: 96.33 mg/dL | CREATINE PHOSPHOKINASE [4]: 578 u/L | CREATININE [4]: 0.18 mg/dL | GLUCOSE [4]: 128.33 mg/dL | LACTATE DEHYDROGENASE [4]: 137 u/L | LIPASE [4]: 10.67 u/L | PHOSPHORUS [4]: 11.5 mg/dL | POTASSIUM [4]: 6.15 MEQ/L | SODIUM [4]: 142.73 MEQ/L | TOTAL BILIRUBIN [4]: 0.1 mg/dL | TOTAL PROTEIN [4]: 7.67 G/DL | URIC ACID [4]: 2.73 mg/dL | ABSOLUTE BASOPHIL [5]: 0 CELLS/uL | ABSOLUTE EOSINOPHIL [5]: 32 CELLS/uL | ABSOLUTE LYMPHOCYTE [5]: 8090.33 CELLS/uL | ABSOLUTE MONOCYTE [5]: 25.67 CELLS/uL | ABSOLUTE SEGMENTED NEUTROPHIL [5]: 718.67 CELLS/uL | BASOPHIL [5]: 0% | EOSINOPHIL [5]: 0.33% | ERYTHROCYTE COUNT [5]: 5.61 x10E6/uL | HEMATOCRIT [5]: 37.6% | HEMOGLOBIN [5]: 14.37 G/DL | LEUKOCYTE COUNT [5]: 8.87 x10E3/uL | LYMPHOCYTE [5]: 91.33% | MEAN CORPUSCULAR HEMOGLOBIN [5]: 25.63 pg | MEAN CORPUSCULAR HEMOGLOBIN CONCENTRATION [5]: 38.23 G/DL | MEAN CORPUSCULAR VOLUME [5]: 67.03 fL | MONOCYTE [5]: 0.33% | NEUTROPHIL [5]: 8% | NUCLEATED RED BLOOD CELLS [5]: 0.33 /100WBC | PLATELET COUNT [5]: 1211.67 x10E3/uL | ALANINE AMINOTRANSFERASE [5]: 46.67 u/L | ALBUMIN [5]: 3.97 G/DL | ALKALINE PHOSPHATASE [5]: 647.67 u/L | ASPARTATE AMINOTRANSFERASE [5]: 67.67 u/L | BLOOD UREA NITROGEN [5]: 9.67 mg/dL | CARBON DIOXIDE [5]: 23.33 mmol/L | CHLORIDE [5]: 96.33 MEQ/L | CHOLESTEROL [5]: 36.33 mg/dL | CREATINE PHOSPHOKINASE [5]: 231.67 u/L | CREATININE [5]: 0.28 mg/dL | GLUCOSE [5]: 138.67 mg/dL | LACTATE DEHYDROGENASE [5]: 103 u/L | LIPASE [5]: 9.33 u/L | PHOSPHORUS [5]: 10.07 mg/dL | POTASSIUM [5]: 5.43 MEQ/L | SODIUM [5]: 138.43 MEQ/L | TOTAL BILIRUBIN [5]: 0.1 mg/dL | TOTAL PROTEIN [5]: 5.77 G/DL | URIC ACID [5]: 0.63 mg/dL | ABSOLUTE BASOPHIL [6]: 0 CELLS/uL | ABSOLUTE EOSINOPHIL [6]: 34.67 CELLS/uL | ABSOLUTE LYMPHOCYTE [6]: 10740.67 CELLS/uL | ABSOLUTE MONOCYTE [6]: 0 CELLS/uL | ABSOLUTE SEGMENTED NEUTROPHIL [6]: 658 CELLS/uL | BASOPHIL [6]: 0% | EOSINOPHIL [6]: 0.33% | ERYTHROCYTE COUNT [6]: 6.23 x10E6/uL | HEMATOCRIT [6]: 39.53% | HEMOGLOBIN [6]: 15 G/DL | LEUKOCYTE COUNT [6]: 11.43 x10E3/uL | LYMPHOCYTE [6]: 93.67% | MEAN CORPUSCULAR HEMOGLOBIN [6]: 24.17 pg | MEAN CORPUSCULAR HEMOGLOBIN CONCENTRATION [6]: 38 G/DL | MEAN CORPUSCULAR VOLUME [6]: 63.5 fL | MONOCYTE [6]: 0% | NEUTROPHIL [6]: 6% | NUCLEATED RED BLOOD CELLS [6]: 0 /100WBC | PLATELET COUNT [6]: 1334 x10E3/uL | ALANINE AMINOTRANSFERASE [6]: 47.33 u/L | ALBUMIN [6]: 3.9 G/DL | ALKALINE PHOSPHATASE [6]: 436.33 u/L | ASPARTATE AMINOTRANSFERASE [6]: 73.67 u/L | BLOOD UREA NITROGEN [6]: 13.67 mg/dL | CARBON DIOXIDE [6]: 24.33 mmol/L | CHLORIDE [6]: 103.67 MEQ/L | CHOLESTEROL [6]: 34 mg/dL | CREATINE PHOSPHOKINASE [6]: 348.33 u/L | CREATININE [6]: 0.2 mg/dL | GLUCOSE [6]: 160.67 mg/dL | LACTATE DEHYDROGENASE [6]: 186.67 u/L | LIPASE [6]: 8.67 u/L | PHOSPHORUS [6]: 11.73 mg/dL | POTASSIUM [6]: 5.75 MEQ/L
